Patent US11918553B2, “Anti-oncogenic phytochemicals comprising substituted henicosanoic acid and henicosenoic acid” (Ostentus Therapeutics, Inc., priority 2022, dated 2024)

Experiments:
Assay in all cases: Apoptosis flow cytometry assay of HPLC fractions and synthesized compounds
MV-4-11 cells = format: cell-based, human
Method: Apoptosis flow cytometry assays were performed essentially as described in Example 3. In one series of experiments, cultures MV-4-11 cells were grown to an appropriate density and approximately 20,000 cells/100 μL were seeded into wells of 96-well cell culture microplate. For each fraction, either 0.5 μL/mL of a fraction or 1 μL/mL of a fraction was then added to transferred cells for each cell line and incubated for 24 hours at 37° C. in 5% CO2 incubator. […] Cells were then assessed for apoptosis by an apoptosis flow cytometry assay employing with a fluorochrome-conjugated Annexin V and/or the fluorescent nucleic acid dye 4,6-diamidino-2-phenylindole (DAPI) (APC Annexin V, BD Bioscience, CA) following protocols provided by the manufacture. […] Aliquots were then incubated in the dark for 15 minutes with either 1) an Annexin-V-APC conjugate and DAPI, 1) an Annexin-V-APC conjugate; or 3) DAPI. An unstained aliquot was also set up as a negative control to define the basal level of apoptotic and dead cells. The percentage of cells that have been induced to undergo apoptosis is then determined by subtracting the percentage of apoptotic cells in the unstained aliquot from percentage of apoptotic cells in the stained aliquot. After staining, cells were washed in ice-cold PBS and resuspended in 300 μL of the Annexin V buffered solution, and analysis by flow cytometry using an LSR II flow cytometer (BD Bioscience, CA). […] Mean cell numbers between the OST-01 treated and control group was statistically analyzed by using unpaired, two-tailed Student's t test, with values from at least two independent experiments with triplicate determination. […]
Raw data obtained from these analyses were searched against a natural product databases, a flavonoid database, and other chemspider databases centered to plant natural products for putative identification. IN addition, based on the most abundant precursor ions detected in DI-MS, compounds were manually searched to assign putative identify of the abundant compounds. […]

THP-1 cells = format: cell-based; details: THP-1, highest amount tested (200 μM), relative to ethanol or DMSO negative controls (FIG. 26B)
HL-60 cells = format: cell-based, human; details: HL-60, highest amount tested (50 μM)

Structure (SMILES) | increase in Annexin V positive cells (MV-4-11 cells; MV-4-11, highest amount tested (50 μM), relative to ethanol negative control (FIG. 27A)) | increase in Annexin V positive cells (MV-4-11 cells; MV-4-11, highest amount tested (200 μM), relative to ethanol or DMSO negative controls (FIG. 26A)) [%] | increase in Annexin V positive cells (THP-1 cells) [%] | increase in DAPI positive cells (MV-4-11 cells; MV-4-11, up to 30 μM, relative to ethanol negative control, decline at higher concentrations (FIG. 28A)) [fold] | increase in DAPI positive cells (HL-60 cells; relative to ethanol negative control (FIG. 28B)) | increase in Annexin V positive cells (HL-60 cells; relative to ethanol or DMSO negative controls (FIG. 27B))
O=C(O)/C=C/CCCCCCCCCCCCCCCCCCO [(2E)-21-Hydroxy-2-henicosenoic acid] | over 2 fold | ≥ 55 | ≥ 50 | – | – | –
O=C(O)CCCCCCCCCCCCCCCCCCCCO | – | – | – | ≥ 8 | over 4 fold | over 1.5 fold
